# Measurements as given in US7795291B2, “Substituted acid derivatives useful as anti-atherosclerotic, anti-dyslipidemic, anti-diabetic and anti-obesity agents and method” (Bristol-Myers Squibb Company, priority 2006, dated 2010).
# Legend:
# [1] = molecular target: T1, human PPARα receptor (Homo sapiens, UniProt Q07869); assay: GAL4-hPPARα-LBD functional transactivation (luciferase) assay in HEK293 cells; assay type: cell-based; details: for Emax: HEK293, maximum activity vs maximal activity of 100 μM fenofibric acid, read-out: PPARα % efficacy
# T1 construct: transiently transfecting GAL4-hPPARα-LBD or GAL4-hPPARγ-LBD constructs; GAL4 (fusion partner); expressed in transfected cells; host or cells: HEK293 cells stably expressing 5×GAL4RE-Luciferase
# T1 sequence (Q07869 239-466 limits assumed): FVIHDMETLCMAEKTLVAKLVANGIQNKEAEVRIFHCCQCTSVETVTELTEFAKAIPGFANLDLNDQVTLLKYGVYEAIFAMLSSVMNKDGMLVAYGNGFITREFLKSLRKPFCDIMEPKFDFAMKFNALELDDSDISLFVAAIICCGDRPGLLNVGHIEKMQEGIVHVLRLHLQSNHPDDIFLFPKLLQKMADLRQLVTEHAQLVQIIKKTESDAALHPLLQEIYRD
# Protocol: (§1) In vitro PPAR agonist functional assays were performed by transiently transfecting GAL4-hPPARα-LBD or GAL4-hPPARγ-LBD constructs respectively into HEK293 (human embryonic kidney) cells stably expressing 5×GAL4RE-Luciferase. Agonist binding results in an increase in luciferase enzyme activity which can be monitored by measuring luminescence upon cell lysing and the addition of luciferin substrate. EC50 values (μM) for PPARα or γ agonist activity were calculated as the concentration of the test ligand (μM) required for the half-maximal activity in HEK293 cells. The efficacy of a test ligand is defined as its maximum activity as compared to the maximal activity of the primary standards, 100 μM fenofibric acid for PPARα and 1 μM rosiglitazone for PPARγ, reported as % efficacy.
# [2] = molecular target: T2, human PPARγ receptor (Homo sapiens, UniProt P37231); assay: GAL4-hPPARγ-LBD functional transactivation (luciferase) assay in HEK293 cells; assay type: cell-based; details: for Emax: HEK293, maximum activity vs maximal activity of 1 μM rosiglitazone, read-out: PPARγ % efficacy
# T2 construct: transiently transfecting GAL4-hPPARα-LBD or GAL4-hPPARγ-LBD constructs; GAL4 (fusion partner); expressed in transfected cells; host or cells: HEK293 cells stably expressing 5×GAL4RE-Luciferase
# T2 sequence (P37231 238-503 limits assumed): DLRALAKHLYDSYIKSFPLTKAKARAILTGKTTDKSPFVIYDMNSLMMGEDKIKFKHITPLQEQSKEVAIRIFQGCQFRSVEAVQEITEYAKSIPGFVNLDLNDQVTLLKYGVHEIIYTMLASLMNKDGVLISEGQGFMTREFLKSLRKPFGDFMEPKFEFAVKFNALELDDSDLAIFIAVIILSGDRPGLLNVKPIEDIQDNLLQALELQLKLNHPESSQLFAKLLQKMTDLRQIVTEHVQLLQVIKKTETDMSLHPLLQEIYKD
# Protocol: as §1
# [3] = test system: high fat-fed hamster; assay: High fat-fed hamster model: plasma triglyceride and cholesterol levels; assay type: in vivo, Golden Syrian Hamster (Mesocricetus auratus); details: 10 mg/kg orally dosed once daily for 14 days; high fat-fed male hamsters, fasted overnight
# Protocol: It is known by one skilled in the art that the compounds of the present invention decrease plasma triglycerides and cholesterol levels at doses ≧10 mg/kg in rodent models of atherosclerosis and dyslipidemia (e.g. the high fat-fed hamster model). The typical administration of said compounds is expected to be between 0.1 to 2,000 mg/day in the clinical setting, and is preferably between 0.5 to 100 mg/day. (Reference for high fat-fed hamster model as an in vivo rodent model for anti-atheroslerosis efficacy: P-R Wang et al., Eur. Journ. of Pharm., 2001, 427, 285-293).
# Male Golden Syrian Hamster (Mesocricetus auratus), 7-10 weeks of age and weighing 110-120 grams, were put on a high fat diet (D11953) for two weeks. The high fat diet was formulated by Research Diets, Inc, New Brunswick, N.J. using Purina 5001 as the base diet. Final composition (% by weight) of the diet is: 11.5% coconut oil, 11.5% corn oil, 0.5% cholesterol and 5% fructose. […] Plasma samples were obtained from hamsters fasted overnight (18 hours after last administration of compound) on day 22. The plasma triglyceride and cholesterol levels were determined and the percentage reductions in both parameters of drug-treated animals relative to vehicle-treated animals are shown in Table 2 below.
compound,measurement,setting,value
COC(=O)N(CC(=O)O)Cc1cc(OCc2nc(-c3ccc(Cl)cc3)oc2C)ccc1F [Compound 2],EC50,"[1]; GAL4-hPPARα-LBD in HEK293 cells, 5×GAL4RE-Luciferase",0.004 ± 0.001 µM
same,Emax,[1],81%
same,EC50,"[2]; GAL4-hPPARγ-LBD in HEK293 cells, 5×GAL4RE-Luciferase",4.51 ± 1.31 µM
same,Emax,[2],67%
same,% Reduction in Plasma Total Cholesterol vs Vehicle-control group,[3],−60%
same,% Reduction in Plasma Triglycerides vs Vehicle-control group,[3],−85%
"COC(=O)N(CC(=O)O)Cc1cccc(OCc2nc(-c3ccc(Cl)cc3)oc2C)c1 [Compound 1, Glycine, N-[[3-[[2-(4-chlorophenyl)-5-methyl-4-oxazolyl]methoxy]phenyl]methyl]-N-(methoxycarbonyl)-]",Emax,[1],81%
same,Emax,[2],83%
same,% Reduction in Plasma Total Cholesterol vs Vehicle-control group,[3],−38%
same,% Reduction in Plasma Triglycerides vs Vehicle-control group,[3],−77%
